Key:
L1 5′UTR promoter = test: L1 5′UTR-Luc luciferase reporter assay in MeCP2 KO neuroepithelial cells; assay type: cell-based, mouse; settings: Sox2 overexpression in MeCP2 KO neuroepithelial cells
Procedure: Rat NSCs were isolated, characterized and cultured as described (31,32). For neuronal differentiation, cells were cultured in N2 medium (Invitrogen) containing retinoic acid (RA, 1 μM, Sigma) and forskolin (5 μM, Sigma) for 4 days (11). Freshly isolated neuroepithelial cells from time-pregnant midgestation (E11.5) telencephalons from WT and MeCP2 KO sibling mouse embryos from the same background (C57BL/6J) were briefly cultured for 2-3 passages in FGF-2 as described elsewhere (19). Primary skin fibroblasts were isolated from tail biopsy and cultured in DMEM (Invitrogen) with 10% FBS (Invitrogen). Samples of all isolated cells were used for genotyping using previously described primers (33). Plasmid transfections were done by electroporation following the manufacturer's instructions (Amaxa Biosystem).
The L1 5′UTR-Luc plasmid was methylated by […] according to the manufacturer's protocol. Complete methylation was checked by digestion with Hpa II restriction enzyme. Luciferase activity was measured with the Dual-Luciferase reporter assay system (Promega) according to the manufacturer's protocol. Luciferase activity was usually measured 48 h after transfection. A plasmid containing the Renilla luciferase gene was used as an internal control. All the experiments were done at least 3 times independently and transfection efficiency was about 30% for all samples. […]

MeCP2 and Sox2 = test: Co-immunoprecipitation between MeCP2 and Sox2 in NSCs; assay type: cell-based, rat; settings: in the presence of 5-Aza
Procedure: Immunofluorescence for EGFP was performed as previously described (11). A non-transgenic animal was used to measure the background fluorescence in the brain and to establish a threshold for detection. Western blotting was carried out using standard protocols with the following antibodies: mouse anti-Actin (1/500, Ambion), rabbit anti-MeCP2 (1/1000, Imgenex or Upstate), and rabbit anti-Sox2 (1/100, Chemicon). All secondary antibodies were purchased from Jackson ImmunoResearch. For co-immunoprecipitation, the Nuclear Complex Co-IP kit (Active Motif) was used, following the manufacturer's protocol with the highest stringency buffers.

[1] = tested on: L1 promoter region (5′UTR); test: Chromatin immunoprecipitation (ChIP) on the endogenous rat L1 promoter region in NSCs; assay type: cell-based; settings: 500 ng/ml, 4 days
Description: ChIP assay was done essentially following the manufacturer's protocol using a ChIP assay kit (Upstate). Antibodies used were anti-MeCP2 (Upstate), Sox2 (Chemicon), and IgG. Purified DNA was amplified by PCR using primers for the rat L1 5′UTR promoter region (L1.3, accession # X03095).

L1 5′UTR CpG islands = test: Bisulfite analysis of L1 5′UTR DNA methylation in NSCs; assay type: cell-based, rat; settings: treatment for 4-days
Procedure: Genomic DNA from NSCs was isolated using standard phenol-chloroform extraction techniques. Subsequently, DNA was digested with the restriction enzyme EcoRI and the bisulfite conversion reaction was performed using the Epitect kit (Quiagen), following manufacturer's instructions. Primers were designed based on the rat L1 sequence Mlvi2, using Methyl Primer Express; […]. PCR products were cloned into TOPO TA 2.1 plasmids (Invitrogen) and 40 bacterial colonies were analyzed by sequencing.

Sox2: transcriptional factor Sox2, overexpressed in MeCP2 KO neuroepithelial cells
reduction of luciferase expression (L1 promoter activity) (L1 5′UTR promoter): approximately 50%

Nc1ncn([C@@H]2O[C@H](CO)[C@@H](O)[C@H]2O)c(=O)n1 [5-Azacytidine]
amount of MeCP2 in association with Sox2 in solution (Co-IP) (MeCP2 and Sox2): increased the amount of MeCP2 in association with Sox2 in solution
MeCP2 ChIP signal / association to the L1 promoter region [1]: the MeCP2 ChIP signal was lost
Sox2 binding / association to the L1 promoter region (ChIP) [1]: did not prevent Sox2 binding to the L1 promoter
MeCP2 ChIP signal / association to the L1 promoter region ([1]; listed as 5-Azacitidine): reduced MeCP2
Sox2 binding / association to the L1 promoter region (ChIP) ([1]; listed as 5-Azacitidine): not Sox2 association
methylation of the 5′UTR L1 region (5 CpG sites, bisulfite) (L1 5′UTR CpG islands): completely removed methyl radicals
